Test results reported in US10150743B2, “Carboxylic acid compounds” (priority 2012, dated 2018).

Columns and labels:
[1] = molecular target: human TLR7 (Homo sapiens (Human), UniProt Q9NYK1); assay: Human TLR7 assay (SEAP reporter in HEK293); type: cell-based; conditions: SEAP induction, overnight incubation at 37° C., 0.1% DMSO; read-out: TLR7 (pEC50) (converted)
Text: Recombinant human TLR7 was stably expressed in a HEK293 cell line already stably expressing the pNiFty2-SEAP reporter plasmid; integration of the reporter gene was maintained by selection with the antibiotic zeocin. The most common variant sequence of human TLR7 (represented by the EMBL sequence AF240467) was cloned into the mammalian cell expression vector pUNO and transfected into this reporter cell-line. Transfectants with stable expression were selected using the antibiotic blasticidin. In this reporter cell-line, expression of secreted alkaline phosphatase (SEAP) is controlled by an NFkB/ELAM-1 composite promoter comprising five NFkB sites combined with the proximal ELAM-1 promoter. TLR signaling leads to the translocation of NFkB and activation of the promoter results in expression of the SEAP gene. TLR7-specific activation was assessed by determining the level of SEAP produced following overnight incubation of the cells at 37° C. with the standard compound in the presence of 0.1% (v/v) dimethylsulfoxide (DMSO). Concentration dependent induction of SEAP production by compounds was expressed as the concentration of compound which produced half of the maximal level of SEAP induction for that compound (EC50).

[2] = molecular target: human TLR8 (Homo sapiens (Human), UniProt Q9NR97); assay: Human TLR8 assay (TLR8/NF-kB/SEAPorter HEK 293 Cell Line); type: cell-based; conditions: SEAP induction, overnight incubation at 37° C., 0.1% DMSO; read-out: TLR8 pEC50 (converted)
Text: TLR8/NF-kB/SEAPorter™ HEK 293 Cell Line (Imgenex Corporation) is a stably co-transfected cell line which expresses full-length human TLR8 and the secreted alkaline phosphatase (SEAP) reporter gene under the transcriptional control of an NF-κB response element. TLR8 expression in this cell line has been tested by flow cytometry. Transfectants with stable expression were selected using the antibiotic blasticidin and geneticin. TLR signaling leads to the translocation of NF-κB and activation of the promoter results in expression of the SEAP gene. TLR8-specific activation was assessed by determining the level of SEAP produced following overnight incubation of the cells at 37° C. with the standard compound in the presence of 0.1% (v/v) dimethylsulfoxide (DMSO). Concentration dependent induction of SEAP production by compounds was expressed as the concentration of compound which produced half of the maximal level of SEAP induction for that compound (EC50).

[3] = test system: Renca mouse tumour cells; assay: Tumour growth studies in Renca, a murine syngeneic renal carcinoma tumour model; type: in vivo; conditions: Balb/C mice, 0.3 mg/kg once a week p.o. on days 1, 8, 15; vs 0.5% methylcellulose; FIG. 9
Procedure: Experiments were conducted on female mice (Balb/C genotype, at least 5 weeks old). Renca mouse tumour cells (Cancer Chemother Pharmacol. 1995; 36 (1): 7-12) were kindly provided by Dr. T. Fujioka at Department of Urology, Iwate Medical University School of Medicine. Renca mouse tumour cells (5×10^4) were implanted subcutaneously in the flank of mice on day 0. Mice were treated with either drug vehicle (0.5% methylcellulose), the compound of Example 3 (0.3 mg/kg once a week) or the compound of Example 4 (3 mg/kg once a week) administered orally (p. o.) on days 1, 8, and 15. Tumour volumes were assessed at least twice weekly by bilateral vernier caliper measurements.
Tumour growth inhibition from the start of treatment was assessed by comparison of the differences in tumour growth rate between control and the compound of Example 3 treated groups, as shown in FIG. 9.
Tumour growth inhibition from the start of treatment was assessed by comparison of the differences in tumour growth rate between control and the compound of the Example 4 treated groups, as shown in FIG. 10.

human TLR7, sequence (Q9NYK1 27-1049): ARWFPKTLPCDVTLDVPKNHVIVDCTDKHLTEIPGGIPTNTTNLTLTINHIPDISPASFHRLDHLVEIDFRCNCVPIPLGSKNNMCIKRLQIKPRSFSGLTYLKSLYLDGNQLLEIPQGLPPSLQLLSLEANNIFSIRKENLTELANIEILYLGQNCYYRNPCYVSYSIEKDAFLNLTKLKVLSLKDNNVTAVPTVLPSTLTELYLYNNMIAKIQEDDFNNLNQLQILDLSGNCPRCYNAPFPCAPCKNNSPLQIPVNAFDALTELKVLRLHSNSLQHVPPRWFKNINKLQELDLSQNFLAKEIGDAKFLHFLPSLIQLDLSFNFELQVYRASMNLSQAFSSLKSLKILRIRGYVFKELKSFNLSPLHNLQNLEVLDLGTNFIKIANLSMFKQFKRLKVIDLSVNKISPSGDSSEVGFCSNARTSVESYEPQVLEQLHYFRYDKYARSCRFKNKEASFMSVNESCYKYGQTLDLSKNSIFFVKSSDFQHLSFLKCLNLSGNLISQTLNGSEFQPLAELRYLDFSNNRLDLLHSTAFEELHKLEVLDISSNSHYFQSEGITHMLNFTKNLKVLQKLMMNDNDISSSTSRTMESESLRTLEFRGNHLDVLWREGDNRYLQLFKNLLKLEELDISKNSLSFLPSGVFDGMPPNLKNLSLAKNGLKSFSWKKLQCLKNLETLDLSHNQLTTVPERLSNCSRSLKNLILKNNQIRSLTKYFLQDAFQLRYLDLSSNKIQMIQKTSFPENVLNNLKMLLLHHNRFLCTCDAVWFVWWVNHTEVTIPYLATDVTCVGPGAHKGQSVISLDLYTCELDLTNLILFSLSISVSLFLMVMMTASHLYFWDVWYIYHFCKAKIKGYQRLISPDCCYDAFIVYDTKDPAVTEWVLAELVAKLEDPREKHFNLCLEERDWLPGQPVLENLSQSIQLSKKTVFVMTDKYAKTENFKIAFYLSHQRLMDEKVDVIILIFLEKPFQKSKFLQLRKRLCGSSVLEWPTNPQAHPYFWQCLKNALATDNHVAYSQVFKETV
human TLR8, sequence (Q9NR97 27-1041): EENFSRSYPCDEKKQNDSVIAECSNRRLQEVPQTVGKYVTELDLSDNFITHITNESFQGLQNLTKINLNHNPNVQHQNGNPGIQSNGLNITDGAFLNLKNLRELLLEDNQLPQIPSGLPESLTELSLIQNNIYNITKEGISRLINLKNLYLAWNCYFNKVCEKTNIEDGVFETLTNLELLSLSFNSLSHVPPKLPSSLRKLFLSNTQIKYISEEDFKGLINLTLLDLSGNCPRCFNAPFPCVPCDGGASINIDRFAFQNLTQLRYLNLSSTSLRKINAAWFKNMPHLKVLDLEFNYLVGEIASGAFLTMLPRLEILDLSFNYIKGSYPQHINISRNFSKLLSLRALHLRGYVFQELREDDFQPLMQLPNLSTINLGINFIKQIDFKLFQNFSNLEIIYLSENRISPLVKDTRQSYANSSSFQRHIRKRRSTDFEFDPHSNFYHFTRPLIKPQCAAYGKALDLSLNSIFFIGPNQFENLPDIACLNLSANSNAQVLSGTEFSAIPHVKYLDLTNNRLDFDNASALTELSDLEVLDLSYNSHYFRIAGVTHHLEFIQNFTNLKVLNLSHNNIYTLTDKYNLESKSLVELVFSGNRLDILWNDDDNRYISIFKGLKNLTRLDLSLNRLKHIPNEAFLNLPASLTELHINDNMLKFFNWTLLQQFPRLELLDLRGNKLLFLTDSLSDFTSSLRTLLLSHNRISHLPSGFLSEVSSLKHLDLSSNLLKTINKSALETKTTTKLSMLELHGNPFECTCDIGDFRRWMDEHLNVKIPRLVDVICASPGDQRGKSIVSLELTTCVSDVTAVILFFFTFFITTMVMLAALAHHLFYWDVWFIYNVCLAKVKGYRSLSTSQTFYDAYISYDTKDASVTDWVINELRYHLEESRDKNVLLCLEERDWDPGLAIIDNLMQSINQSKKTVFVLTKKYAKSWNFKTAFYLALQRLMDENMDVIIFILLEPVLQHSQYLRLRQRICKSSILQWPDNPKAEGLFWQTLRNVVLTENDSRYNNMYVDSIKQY

SMILES: CCC[C@@H](CCO)Nc1nc(N)nc(C)c1Cc1ccc(CN(CC(=O)O)CC(F)F)cc1OC [Example 3, (S)-2-((4-((2-amino-4-(1-hydroxyhexan-3-ylamino)-6-methylpyrimidin-5-yl)methyl)-3-methoxybenzyl)(2,2-difluoroethyl)amino)acetic acid]
- EC50 [1]: 79.4 nM
- EC50 [2]: > 10000 nM
- Tumour growth inhibition [3]: inhibited tumour growth
